Measured values: patent US7410975B2, “Small molecule toll-like receptor (TLR) antagonists” (Coley Pharmaceutical Group, Inc., priority 2003, dated 2008)
Like-named read-outs stand apart in the source and are kept apart here.

Experiments:
Assay type in all cases: cell-based
[1] = molecular target: T1, human TLR9 (hTLR9) (Homo sapiens, UniProt Q9NR96)
T1 construct: expressed in transfected cells
T1 sequence (Q9NR96 26-1032): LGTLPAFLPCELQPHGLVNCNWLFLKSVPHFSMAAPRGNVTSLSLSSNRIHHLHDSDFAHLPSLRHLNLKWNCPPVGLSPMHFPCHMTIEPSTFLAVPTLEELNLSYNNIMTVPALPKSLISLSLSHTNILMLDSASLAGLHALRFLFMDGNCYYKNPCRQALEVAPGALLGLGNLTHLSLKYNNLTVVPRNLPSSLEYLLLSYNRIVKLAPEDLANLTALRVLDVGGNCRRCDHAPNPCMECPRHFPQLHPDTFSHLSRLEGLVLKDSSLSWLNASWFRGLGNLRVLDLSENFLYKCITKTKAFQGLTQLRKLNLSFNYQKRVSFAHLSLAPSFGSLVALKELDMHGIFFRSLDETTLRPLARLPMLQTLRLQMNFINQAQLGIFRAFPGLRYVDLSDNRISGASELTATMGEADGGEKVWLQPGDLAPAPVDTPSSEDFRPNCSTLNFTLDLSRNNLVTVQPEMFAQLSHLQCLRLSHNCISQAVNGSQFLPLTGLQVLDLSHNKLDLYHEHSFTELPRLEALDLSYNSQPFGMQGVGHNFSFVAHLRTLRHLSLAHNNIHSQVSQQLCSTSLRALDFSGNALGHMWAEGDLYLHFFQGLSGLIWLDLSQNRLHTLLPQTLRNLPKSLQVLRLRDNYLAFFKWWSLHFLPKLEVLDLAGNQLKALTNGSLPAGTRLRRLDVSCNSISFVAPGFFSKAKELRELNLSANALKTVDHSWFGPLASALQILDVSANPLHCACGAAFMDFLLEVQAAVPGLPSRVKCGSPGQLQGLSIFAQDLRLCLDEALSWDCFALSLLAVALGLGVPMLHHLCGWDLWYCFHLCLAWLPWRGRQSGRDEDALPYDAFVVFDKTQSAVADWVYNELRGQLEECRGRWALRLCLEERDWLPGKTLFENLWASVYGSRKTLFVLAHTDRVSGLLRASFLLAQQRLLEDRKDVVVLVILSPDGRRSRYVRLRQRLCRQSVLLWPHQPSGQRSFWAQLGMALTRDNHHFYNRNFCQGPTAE
Procedure: Stably co-transfecting the human TLR9 receptor (hTLR9) and an NF-κB promoter-driven luciferase gene into HEK-293 cells created the cell line hTLR9-NFkB-293. hTLR9-NFkB-293 cells were counted and seeded at 1.5×10^4 cells per well in 96-well cell culture plates one day before assaying and cultured at 37° C./5% CO2. The day of the assay, antagonist was added at 50 μM, 5.0 μM or 0.5 μM. The cells were then stimulated with the EC50 dose of the TLR9 agonist, CpG-ODN 2006, and cultured for 16 h in a humidified incubator at 37° C. The culture supernatant was removed and the cells were treated with lysis buffer and stored at −80° C. before measuring luciferase activity. The luciferase readout was measured according to manufacturer's instructions using a luciferase assay system available from Promega, USA. The antagonist dose listed in Table 18 is the minimum effective dose (μM) for blockade of the TLR9 agonist. As evident from the results presented in Table 18, the minimum effective dose (μM) for blockade of the TLR9 agonist was 0.5 μM or 5 μM for all of the compounds tested, as measured by this three-point assay.

[2] = molecular target: T2, hTLR9 (Homo sapiens, UniProt Q9NR96); assay: hTLR9 antagonism IC50, hTLR9-NFkB-293 cells, luciferase readout, CpG-ODN 2006 (Examples 8 and 18, Tables 19 and 20); details: for inhibition of TLR9 signaling in vitro (in words): CpG-ODN 2006
T2 construct: expressed in transfected cells
T2 sequence (Q9NR96 26-1032): T1 sequence (Q9NR96 26-1032)
Procedure: (§1) hTLR9-NFkB-293 cells were counted and seeded at 1.5×10^4 cells per well in 96-well cell culture plates one day before assaying and cultured at 37° C./5% CO2, as described in Example 7. The day of the assay, antagonist was added at varying concentrations starting at 50 μM with a 1/5 to 1/6 dilution for 7 steps. The cells were then stimulated with the EC50 dose of the TLR9 agonist, CpG-ODN 2006, and cultured for 16 h in a humidified incubator at 37° C. The culture supernatant was removed and the cells were treated with lysis buffer and stored at −80° C. before measuring luciferase activity as described in Example 7. […] Results shown in Table 19 under the heading hTLR9 are the IC50 dose (μM) for blockade of a CpG ODN-generated signal in hTLR9-NFkB-293 cells.
as §1, with “20” for “19”

[3] = molecular target: T1, human TLR9 (hTLR9); assay: Antagonist screen, hTLR9-NFκB-293 cells, 6× NF-κB-luciferase reporter, with EC50 of CpG ODN 2006; details: compound at 0.5, 5, 50 μg/ml; EC50 concentration of CpG ODN 2006; 16 h; NF-κB-luciferase
Procedure: Candidate small molecules for initial screening were obtained from a commercially available library of 880 off-patent small molecules selected for structural diversity and proven bioavailability in humans (Prestwick Chemical Library). […] Results were measured as fold induction over baseline luciferase activity measured in the absence of ODN 2006 and compared to fold induction over baseline in the presence of the EC50 concentration of ODN 2006 alone. […] Additional screening was performed in like manner using additional small molecules selected from another library or specifically prepared for this purpose.
The method is described in greater detail as follows. The cells for each individual cell clone (hTLR3-NFκB-293, hTLR7-NFκB-293, hTLR8-NFκB-293 and hTLR9-NFκB-293) were counted and seeded one day before the stimulation at 1.5×10^4 cells per well in 96-well cell culture plates. To become adherent the cells were incubated after seeding overnight at 37° C. in 5% CO2 humidified air.
The screen for each compound was performed at the same time for all of the receptors TLR3, TLR7, TLR8 and TLR9. Up to fifteen test compounds, each assayed in duplicate at each of three different final concentrations (0.5 μg/ml, 5 μg/ml, and 50 μg/ml), were used for 16 h cell stimulation on a single multiwell culture plate. A 4× final concentration master plate was created to prepare the different test compounds before they were added to the cells.
Controls were added as duplicates individually for each cell clone on the cell culture plate. Positive controls were used as follows (final concentrations): 50 μg/ml poly(I:C) for hTLR3-NFκB-293; 8 μM resiquimod (R848) for hTLR7-NFκB-293; 30 μM R848 for hTLR8-NFκB-293; and 2.5 μM CpG-ODN 2006 for hTLR9-NFκB-293. Media alone was used as negative control. After addition of controls and small molecules, the cell clones were additionally stimulated with the EC50 concentration of the appropriate receptor-specific ligand.
The mean value of wells H2 and H5 (each with cells and EC50 concentration of the appropriate receptor-specific ligand) divided by the mean of wells H3 and H6 (each with cells alone) yielded the baseline response (i.e., fold induction of luciferase activity) to EC50 concentration of the appropriate receptor-specific ligand.
After 16 h stimulation the supernatant was removed and the cells treated with lysis buffer and stored at −80° C. before measuring.
For each screen result a graphical documentation was performed.
The baseline result (measured with addition of the EC50 concentration of the receptor-specific ligand) for each cell culture plate was measured as described above. Antagonistic effects were measured by down regulation compared to the baseline. Antagonists were scored as follows: • 13: compounds for which there was clear down regulation at 0.5 μg/ml, 5 μg/ml, and 50 μg/ml; • 12: compounds for which there was clear down regulation at 5 μg/ml and 50 μg/ml; • 11: compounds for which there was clear down regulation only at 50 μg/ml; • —: compounds for which there was no clear down regulation even at 50 μg/ml. Agonists

[4] = three-point assay at 50, 5.0 or 0.5 μM, EC50 dose of CpG-ODN 2006, 16 h
[5] = hTLR9-NFkB-293 cells, EC50 dose of CpG-ODN 2006, 16 h, Table 19 quinazolines, read-out: hTLR9 (IC50 dose for blockade of a CpG ODN-generated signal)
[6] = hTLR9-NFkB-293 cells, EC50 dose of CpG-ODN 2006, 16 h, Table 20 diarylmethanes, read-out: hTLR9 (IC50 dose for blockade of a CpG ODN-generated signal)

Cc1ccc2nc3c(c(N)c2c1)CCN3c1ccccc1 [1552(127), 6-Methyl-1-phenyl-2,3-dihydro-1H-pyrrolo[2,3-b]quinolin-4-ylamine]
antagonist dose (minimum effective dose for blockade of the TLR9 agonist) [1, 4]: 0.5 µM

CN(C)c1cc(N)c2ccccc2n1 [1553(128), N*2*,N*2*-Dimethyl-quinoline-2,4-diamine]
antagonist dose (minimum effective dose for blockade of the TLR9 agonist) [1, 4]: 0.5 µM

CN(C)CCOc1nc(-c2ccccc2)nc2ccccc12 [CMZ 203-45, Dimethyl-[2-(2-phenyl-quinazolin-4-yloxy)-ethyl]-amine]
IC50 [2, 5]: 29 µM

CN1CCN(c2ccc(C(O)c3ccccc3)cc2)CC1 (stereo not drawn) [CMZ 203-84]
IC50 [2]: 25.6 µM
inhibition of TLR9 signaling in vitro (in words) ([2]; hTLR9-NFkB-293 cells): found to inhibit TLR9 signaling

CN(C)CCOC(c1ccccc1)c1ccc(N2CCN(C)CC2)cc1 (stereo not drawn) [CMZ 203-85]
inhibition of TLR9 signaling in vitro (in words) ([2]; hTLR9-NFkB-293 cells): found to inhibit TLR9 signaling
IC50 [2, 6]: 0.372 µM

CN1CCN(c2ccc(-c3nc(NCCN4CCOCC4)c4ccccc4n3)cc2)CC1 [CMZ 203-87]
IC50 [2, 5]: 0.02 µM

CN1CCN(c2ccc(Cc3ccccc3)cc2)CC1 [CMZ 203-88-1]
IC50 [2]: 12 µM
inhibition of TLR9 signaling in vitro (in words) ([2]; hTLR9-NFkB-293 cells): found to inhibit TLR9 signaling

CN1CCN(c2ccc(/C(=N\O)c3ccccc3)cc2)CC1 [CMZ 203-88]
inhibition of TLR9 signaling in vitro (in words) ([2]; hTLR9-NFkB-293 cells): found to inhibit TLR9 signaling
IC50 [2, 6]: 11.6 µM

CN(C)CCNC(c1ccccc1)c1ccc(N2CCN(C)CC2)cc1 (stereo not drawn) [CMZ 203-89]
inhibition of TLR9 signaling in vitro (in words) ([2]; hTLR9-NFkB-293 cells): found to inhibit TLR9 signaling
IC50 [2, 6]: 0.241 µM

COc1cc2nc(N3CCN(c4ccccc4)CC3)nc(N)c2cc1OC [CMZ 203-90]
IC50 [2, 5]: 5.43 µM

CN1CCN(c2ccc(C(c3ccccc3)N3CCN(C)CC3)cc2)CC1 (stereo not drawn) [CMZ 203-91]
inhibition of TLR9 signaling in vitro (in words) ([2]; hTLR9-NFkB-293 cells): found to inhibit TLR9 signaling
IC50 [2, 6]: 3.95 µM

CN(C)CCCN1c2ccccc2CCc2ccccc21.Cl [compound 72, Imipraminehydrochloride]
hTLR9 (inhibitory effect, antagonist score) [3]: 13 (compounds for which there was clear down regulation at 0.5 μg/ml, 5 μg/ml, and 50 μg/ml)

Cl.Nc1c2c(nc3ccccc13)CCCC2 [compound 329, 1,2,3,4-Tetrahydro-acridin-9-ylamine Tacrine hydrochloridehydrate, reference compound]
antagonist dose (minimum effective dose for blockade of the TLR9 agonist) [1]: 5.0 µM

Nc1c2c(nc3ccccc13)CCCCC2 [compound 936, 7,8,9,10-Tetrahydro-6H-cyclohepta[b]quinolin-11-ylamine]
antagonist dose (minimum effective dose for blockade of the TLR9 agonist) [1, 4]: 0.5 µM

Nc1c2c(nc3ccccc13)CCC2 [compound 1061, 2,3-Dihydro-1H-cyclopenta[b]quinolin-9-ylamine]
antagonist dose (minimum effective dose for blockade of the TLR9 agonist) [1, 4]: 5.0 µM

CC1(C)C=Cc2c(nc3ccccc3c2N)C1 [compound 1201, 3,3-Dimethyl-3,4-dihydro-acridin-9-ylamine]
antagonist dose (minimum effective dose for blockade of the TLR9 agonist) [1, 4]: 0.5 µM

Cc1cc(C)c2c(N)c3cccc(C)c3nc2n1 [compound 1227, 2,4,9-Trimethyl-benzo[b][1,8]naphthyridin-5-ylamine]
antagonist dose (minimum effective dose for blockade of the TLR9 agonist) [1, 4]: 5.0 µM

CC1(C)Cc2nc3ccccc3c(N)c2C(O)C1 (stereo not drawn) [compound 1286, 9-Amino-3,3-dimethyl-1,2,3,4-tetrahydro-acridin-1-ol]
antagonist dose (minimum effective dose for blockade of the TLR9 agonist) [1, 4]: 5.0 µM

Cc1ccc2nc3nc4c(C)cccc4c(N)c3cc2c1 [compound 1595, 2,7-Dimethyl-dibenzo[b,g][1,8]naphthyridin-11-ylamine]
antagonist dose (minimum effective dose for blockade of the TLR9 agonist) [1, 4]: 0.5 µM

CCOc1ccc2nc3cc(NCc4ccco4)ccc3c(N)c2c1 [compound 1674, 7-Ethoxy-N*3*-furan-2-ylmethyl-acridine-3,9-diamine]
antagonist dose (minimum effective dose for blockade of the TLR9 agonist) [1, 4]: 5.0 µM

Cc1cc(C)c2c(N)c3ccccc3nc2n1 [compound 1690, 2,4-Dimethyl-benzo[b][1,8]naphthyridin-5-ylamine]
antagonist dose (minimum effective dose for blockade of the TLR9 agonist) [1, 4]: 0.5 µM
